For orientation: melting point means the temperature, or range, at which the solid turns liquid.

Regarding `OCC(Cl)=C(Cl)CC(O)(Cn1cncn1)C1(Cl)CC1` (configuration not stated), the melting point was in the range of 130 to 132 °C.

`O=Cc1c(Cl)c(Cl)c(Cl)c(Cl)c1Cl` displayed a melting point of 201 to 203 °C.

The molecule `O=C(O)Cc1ccc(-c2cn3ccccc3n2)cc1` returned a melting point of 217 to 221 °C. The same measure for `CCC(C)(C)c1cccc(C(=O)NN)c1O`: 156 to 157 °C.

The molecule `CC(C)CCCC(C)C1CCC2C3CC=C4CC(OC(=O)NCC(=O)N(CCCl)CCCl)CCC4(C)C3CCC12C` (configuration not stated) had a melting point of 98 to 100 °C.

`COC(=O)NC1CCc2c(ccc(OC)c2OC)C1` (configuration not stated) displayed a melting point of 109 to 111 °C.

In the case of `COc1cc(OC)nc(NC(=O)NS(=O)(=O)Cc2ccccc2S(C)(=O)=O)n1`, the melting point was 180 to 182 °C.

In turn, `O=[N+]([O-])c1cc(C(F)(F)F)c(Cl)cc1NCP(=O)(O)O` displayed a melting point of 207 °C.

In turn, `CCOc1cn(C)cc(-c2cccc(C(F)(F)F)c2)c1=O` returned a melting point of 131 to 133 °C. Molecule `Nc1nc(Cl)nc2cnc(Oc3ccc(F)cc3F)cc12` showed a melting point of over 300 °C.

`CN(C)CCc1nnc2n1-c1ccc(Cl)cc1C(c1ccccc1Cl)=NC2` yielded a melting point of 150 to 153 °C. Turning to `CC(C)(C)C(O)(COc1ccccc1)c1cccnc1` (configuration not stated), the melting point fell in the range of 89 to 90.5 °C. In the case of `O=c1c(-c2cccc(F)c2)c(CNc2ncnc3[nH]cnc23)oc2ccc(F)cc12` it was 229 to 232 °C; in that of `COc1cc2ncnc(N3CCC(CN4CCCN(C(C)C)S4(=O)=O)CC3)c2cc1OC`, 158 to 161 °C; in that of `CNn1c(N(C)C)n[nH]c1=O`, 129 °C. For `CN(c1ccccc1)c1nc(N)nc2nc[nH]c12`, the melting point lay in the range of 147 to 152 °C.

The molecule `Nc1ccc(S(=O)(=O)N2C=CC(CCO)Sc3ccccc32)cc1` (configuration not stated) showed a melting point of 145 to 148 °C. `COc1cc(CN(C)c2nn(-c3ccccc3)cc2C=O)ccc1OCc1nc(-c2ccco2)oc1C` showed a melting point of 101 to 102 °C. `CCOC(=O)Cc1c(CCc2ccc(OC)cc2)oc2ccc(C#N)cc12` gave a melting point of 85 to 86 °C. In the case of `O=[N+]([O-])c1cnn2c(-c3ccccc3C(F)(F)F)ccnc12` it was 195 to 197 °C. For the molecule `Cc1ccc(C2c3c(C)c(NC(=O)OC(C)(C)C)c(C)c(C)c3OC2(C)C)cc1` (configuration not stated), the melting point lay in the range of 124 to 125 °C. In the case of `O=C1NCC(Cc2ccc(F)cc2)O1` (configuration not stated) it was 120 to 121 °C; in that of `CC(Nc1c(-c2ccc(C#N)cc2)c(=O)c1=O)C(C)(C)C` (configuration not stated), 192 to 194 °C; in that of `CC(=O)Nc1ccc(OCCOCCO)cc1`, 94 °C. In the case of `COc1ccc(COC(=O)C2=C(C3CCCO3)OC[C@@H]3[C@H](NC(c4ccccc4)(c4ccccc4)c4ccccc4)C(=O)N23)cc1` (some centres not stated) it was 129 to 131 °C; in that of `O[C@H]1CC[C@H](Oc2cccc3onc(OCC4CCN(CC5(O)CCOCC5)CC4)c23)C1` (relative stereo), 147 °C; in that of `O=C(Nc1nccs1)C(CC1CCCC1)c1ccc(S(=O)(=O)C(F)(F)F)cc1` (configuration not stated), 48 to 52 °C.

Turning to `Cc1ccc(-c2cc[nH]c2)cc1`, the melting point is 92 to 93 °C. `CC1(C)CN(C2CCN(c3ccc(F)c(Cl)c3)C2=O)C1=O` (configuration not stated) had a melting point of 120 to 121 °C. The same measure for `CC(C)C(NC(=O)OCc1ccncc1)C(=O)NC(Cc1ccccc1)C(O)C(O)C(Cc1ccccc1)NC(=O)C(NC(=O)OCc1ccncc1)C(C)C` (configuration not stated): 190 to 193 °C. In turn, `CCOc1ccc(-n2c(NCc3ccc(Br)cc3)nc3ccc(Cl)cc32)cc1` displayed a melting point of 140 to 141 °C. Turning to `CN(C)CC1CCCCN1C(=O)c1ccc(-c2[nH]nc3c2C(=O)c2c(NC(=O)NN4CCOCC4)cccc2-3)s1` (configuration not stated), the melting point is over 300 °C. The same measure for `COc1ccc2c(C)c3n(c2c1)CCCC3NC=O` (configuration not stated): 181 to 182 °C; for `O=S(=O)(F)c1ccc(OCc2ccccc2)nn1`: 85 to 86 °C; for `CCOC(=O)c1c[nH]c2c(F)c(C)c(F)cc2c1=O`: 260 to 263 °C. In the case of `O=C(c1cccs1)C(Br)c1ccc(F)cc1` (configuration not stated) it was 182 to 189 °C; in that of `c1ccc(-c2cc(-n3ccc4ccccc43)c3ccccc3n2)cc1`, 100 to 102 °C. Regarding `CCCCc1nc(N)c(C#N)[nH]1`, the melting point was 115 to 116 °C. The same measure for `COc1ccc(CNC(=O)C23CC4CC(CC(C4)C2)C3)cc1OC`: 120 to 122 °C; for `Cc1cc(C)cc(COC2CCC(N)(c3ccccc3)C(OCc3cc(C)cc(C)c3)C2)c1` (configuration not stated): 103 to 105 °C. The same measure for `CN1NC(=O)CC1c1ccccc1` (configuration not stated): 160 to 161 °C; for `CCC(N(C)C)n1cc(C(=O)CN2CCCCC2)cc1C(=O)c1ccc(Cl)cc1` (configuration not stated): 138 to 141 °C. In the case of `Cc1oc(-c2ccccc2)nc1COc1cncc(CCl)c1`, the melting point was in the range of 98 to 99 °C. Consider `CCOC1CC2(C)C(CCC3C4CCC(=O)C4(C)CC(=O)C32)CC1O` (configuration not stated), for which the melting point is 164 to 167 °C. In the case of `c1ccc(CC2CNCCN2)cc1` (racemic) it was 80 to 81 °C; in that of `NC(=O)c1ccc(OCC(F)(F)F)cc1`, 177 to 178 °C. In the case of `CCSc1cn(C)cc(-c2ccc(Cl)c(C(F)(F)F)c2)c1=O` it was 115 to 116 °C; in that of `C/C(=C(\C#N)C(N)=S)N1CCCSCC1`, 138 to 142 °C; in that of `Cc1ncsc1NC(=O)Nc1ccc(-n2nc(C3CC3)cc2C(F)(F)F)nc1`, 244 to 247 °C. `O=C(NCCCN1C(=O)C2(COc3cc4c(cc32)CCO4)c2ccccc21)c1ccccc1OC(F)(F)F` (configuration not stated) had a melting point of 65 to 70 °C. `CCc1noc(C)c1-c1[nH]c2ccccc2c1C(=O)C(=O)N(C)C` gave a melting point of 212 to 215 °C. With `CC(C)(C)c1nc(-c2nnc(NC(=N)N)s2)nc(C(C)(C)C)c1O`, the melting point stood at 277 °C. In the case of `CNC1CCN(c2nc3ccccc3n2Cc2ccc(C#N)cc2)CC1`, the melting point came out at 133 °C. The same measure for `COc1cc(CNC(=O)c2oc(=O)c3ncccc3c2-c2ccc(C)cc2)cc(OC)c1`: 154 to 155 °C; for `COC(=O)c1c(Cl)cc(Cl)cc1NC(=O)CSc1ccccc1OC`: 93 to 94 °C; for `COc1cc(CO)cc(OC)c1OCc1nc(-c2ccccc2)oc1C`: 113 to 114 °C. In the case of `Nc1c(C(=O)Nc2nnn[nH]2)oc2ccccc12` it was 185 °C. The same measure for `CSc1nc(OCCN2CCCC2=O)c(C#N)c(N2CCc3ccccc3CC2)n1`: 126 to 128 °C; for `CCCNC(=O)CCCCCn1c(CCC)nc2c(N)nc3ccccc3c21`: 139 to 141 °C; for `Cc1cc(Cl)nc(N(C(N)=O)c2ccccc2[N+](=O)[O-])n1`: 155 °C.

In the case of `CCOc1cccc(SCC(=O)O)c1CC(=O)O`, the melting point fell in the range of 147 to 150 °C. In the case of `COP(=O)(CC(=O)[C@@H]1COC(C)(C)N1C(=O)OC(C)(C)C)OC` it was 86 to 87 °C; in that of `COc1cc(C)c(/C=C/c2nc3c([nH]2)c(=O)n(C)c(=O)n3C)cc1C`, over 280 °C; in that of `Cn1cnc2nc(-c3ccc(F)cc3)nn2c1=S`, over 300 °C. The same measure for `O=C(C=Cc1cc(O)c(O)c([N+](=O)[O-])c1)c1ccc([N+](=O)[O-])cc1`: 255 to 256 °C; for `COc1c(C)cc(N)c(CS(=O)c2nc3ccccc3[nH]2)c1C` (configuration not stated): 150 to 155 °C; for `COCCn1nc2c(N)nc3ncccc3c2c1CC1CCOCC1`: 230 to 233 °C. The same measure for `O=C(O)CS(=O)(=O)c1ccc2c(-c3ccccc3F)noc2c1Cl`: 204 °C. For `CC(C)C(OCc1ccc(Cl)cc1)c1cncnc1` (configuration not stated), the melting point is 33 to 35 °C. For `CCCc1nn(C)c2c(=O)[nH]c(-c3cc(S(C)(=O)=O)ccc3OCC)nc12`, the melting point fell in the range of 235 to 236 °C. In turn, `O=C(CC1CCCCC1)Nc1ccc2oc3c(c2c1)CCCC3` gave a melting point of 189 to 191 °C. With `Cc1cc(-c2cccs2)ccc1C(=O)c1cccc2c1Nc1ncccc1CN2`, the melting point was 118 to 120 °C. Turning to `CCCCn1c(=O)c(N)c(C)n(CCC(C)C)c1=O`, the melting point was 68 to 70 °C.

Consider `NCc1cc(-c2ccc(C(F)(F)F)cc2)no1`, for which the melting point is 59 °C.

Turning to `COc1cc(Nc2nccc(Nc3cccc(C)c3S(N)(=O)=O)n2)cc(OC)c1OC`, the melting point was in the range of 72 to 75 °C. Molecule `O=c1c(Cl)c(Cl)cnn1-c1cccc(COc2ccccc2)c1` yielded a melting point of 92 to 94 °C.

The molecule `Cc1nc(C(N)=O)c([N+](=O)[O-])n1-c1ccc(Cl)c(Cl)c1` showed a melting point of over 204 °C. In the case of `Cc1c(Cl)cccc1-n1nc(C(N)=O)nc1-c1ccccc1` it was 198 to 200 °C. Take `Cc1ccc(C2C3=C(CC(C)(C)CC3=O)NC3=C2C(=O)CC(C)(C)C3)cc1[N+](=O)[O-]`: the melting point was over 300 °C.

`CCn1ncc2c(NCC3CCCCC3)c3cc(OCCN4CCOCC4)ccc3nc21` gave a melting point of 176 to 178 °C. The same measure for `CC(O)c1coc2cc(NS(C)(=O)=O)c(Oc3ccccc3)cc2c1=O` (configuration not stated): 136 to 138 °C; for `O=C(O)CN(C(=O)CCc1nc2c(F)c(F)cc(F)c2s1)c1ccccc1`: 121 to 124 °C; for `O=C1CCC(c2ccccc2)(c2ccccc2)[C@@H]2CN(C(=O)Cc3ccccc3N3CCCC3)C[C@H]12` (racemic): 178 °C. The molecule `O=C(CO)c1ccc(-c2ccccc2)cc1` came in with a melting point of 130 to 132 °C. Regarding `CC(=O)CN1CCc2c(c(=O)oc3cc(C)c(C)cc23)C1`, the melting point was 136 to 138 °C. In the case of `CC(=O)Cc1nc(/C=C/c2cccc(Cl)c2F)no1` it was 75 to 77 °C; in that of `COC1=C(c2cccc(C(F)(F)F)c2)C(CCC(=O)O)OC1=O` (configuration not stated), 132 °C; in that of `O=c1ccn(C2CCCO2)c(=O)[nH]1` (configuration not stated), 99 to 101 °C.

Consider `Oc1ccc(-n2nc3ccccc3n2)cc1`, for which the melting point fell in the range of 216 to 218 °C.

`CC(C)(C)c1cc(-c2nc3n(c2CN2CCOCC2)CCS3)cc(C(C)(C)C)c1O` gave a melting point of 231 to 233 °C. Take `CCC(N)C(=O)Nc1c(C)cccc1C` (configuration not stated): the melting point was in the range of 48 to 49 °C. Regarding `CCn1c(-c2ccc(OC)c(OC)c2)cc(=O)n(C)c1=O`, the melting point lay in the range of 110 to 120 °C.

For the origin of these results see a melting point compilation (Tetko et al.; mined from patent text by program, amines drawn as free bases though some values may be those of a salt).
